Drawing on patent US20200354348A1, “SEMISYNTHETIC AURONES AND METHODS OF USE THEREOF” (University of Kentucky Research Foundation, priority 2018, published 2020), this text covers melting point for 22 molecules.

For orientation: melting point means the temperature, or range, at which the solid turns liquid.

Where a name gives a salt, the structure may show the parent alone.

`CCn1cc(/C=C2\Oc3cc(OCc4c(F)cccc4Cl)ccc3C2=O)c2ccccc21` [Aurone 4p, (2Z)-6-[(2-Chloro-6-fluorobenzyl)oxy]-2-[(1-ethyl-1H-indol-3-yl)methylene]-1-benzofuran-3(2H)-one] registered a melting point of 198 to 200 °C.

`O=C1/C(=C/c2c[nH]c3ccccc23)Oc2cc(O)ccc21` [Aurone 3i, (2Z)-6-Hydroxy-2-(1H-indol-3-ylmethylene)-1-benzofuran-3(2H)-one] showed a melting point of 280 to 282 °C.

Consider `CN(C)c1ccc(/C=C2\Oc3cc(O)ccc3C2=O)c(Cl)c1` [Aurone 2e, (2Z)-2-[2-Chloro-4-(dimethylamino)benzylidene]-6-hydroxy-1-benzofuran-3(2H)-one], for which the melting point is above 220 °C.

In the case of `CCn1cc(/C=C2\Oc3cc(OCc4c(Cl)cccc4Cl)ccc3C2=O)c2cc(OC)ccc21` [Aurone 4o, (2Z)-6-[(2,6-Dichlorobenzyl)oxy]-2-[(1-ethyl-5-methoxy-1H-indol-3-yl)methylene]-1-benzofuran-3(2H)-one], the melting point lay within 211 to 213 °C.

Take `CN(C)c1ccc(/C=C2\Oc3cc(OCc4ccccc4Cl)ccc3C2=O)c(Cl)c1` [Aurone 4s, (2Z)-6-[(2-Chlorobenzyl)oxy]-2-[2-chloro-4-(dimethylamino)benzylidene]-1-benzofuran-3(2H)-one]: the melting point is above 220 °C.

Consider `O=C1/C(=C/c2ccc3ccccc3n2)Oc2cc(O)ccc21` [Aurone 3e, (2Z)-6-Hydroxy-2-(quinolin-2-ylmethylene)-1-benzofuran-3(2H)-one], for which the melting point lay within 249 to 251 °C.

Molecule `O=C1/C(=C/c2cccnc2)Oc2cc(O)ccc21` [Aurone 3b, (2Z)-6-Hydroxy-2-(pyridin-3-ylmethylene)-1-benzofuran-3(2H)-one] gave a melting point of 255 to 257 °C.

In the case of `COc1cccc2ccc(/C=C3\Oc4cc(O)ccc4C3=O)nc12` [Aurone 3g, (2Z)-6-Hydroxy-2-[(8-methoxyquinolin-2-yl)methylene]-1-benzofuran-3(2H)-one], the melting point was 250 to 252 °C.

On to `O=C1/C(=C/c2ccc(N3CCOCC3)cc2)Oc2cc(O)ccc21` [Aurone 2b, (2Z)-6-Hydroxy-2-(4-morpholin-4-ylbenzylidene)-1-benzofuran-3(2H)-one], for which the melting point was above 220 °C.

`Cn1cc(/C=C2\Oc3cc(OCc4c(F)cccc4Cl)ccc3C2=O)c2ccccc21` [Aurone 4h, (2Z)-6-[(2-Chloro-6-fluorobenzyl)oxy]-2-[(1-methyl-1H-indol-3-yl)methylene]-1-benzofuran-3(2H)-one]: the melting point lay within 225 to 227 °C.

The molecule `Cn1cc(/C=C2\Oc3cc(O)ccc3C2=O)c2ccccc21` [Aurone 3j, (2Z)-6-Hydroxy-2-[(1-methyl-1H-indol-3-yl)methylene]-1-benzofuran-3(2H)-one] displayed a melting point of 272 to 274 °C.

With `Cn1cc(/C=C2\Oc3cc(OCc4ccccc4Cl)ccc3C2=O)c2ccccc21` [Aurone 4e, (2Z)-6-[(2-Chlorobenzyl)oxy]-2-[(1-methyl-1H-indol-3-yl)methylene]-1-benzofuran-3(2H)-one], the melting point lay within 206 to 208 °C.

`COc1ccc2c(c1)c(/C=C1\Oc3cc(OCc4c(F)cccc4Cl)ccc3C1=O)cn2C` [Aurone 4k, (2Z)-6-[(2-Chloro-6-fluorobenzyl)oxy]-2-[(5-methoxy-1-methyl-1H-indol-3-yl)methylene]-1-benzofuran-3(2H)-one] registered a melting point of 200 to 202 °C.

As to `CCn1cc(/C=C2\Oc3cc(O)ccc3C2=O)c2cc(OC)ccc21` [Aurone 3l, (2Z)-2-[(1-Ethyl-5-methoxy-1H-indol-3-yl)methylene]-6-hydroxy-1-benzofuran-3(2H)-one], the melting point fell in the range of 265 to 267 °C.

As to `Cn1cc(/C=C2\Oc3cc(OCc4c(F)cccc4F)ccc3C2=O)c2ccccc21` [Aurone 4f, (2Z)-6-[(2,6-Difluorobenzyl)oxy]-2-[(1-methyl-1H-indol-3-yl)methylene]-1-benzofuran-3(2H)-one], the melting point is above 220 °C.

For the molecule `Cn1cc(/C=C2\Oc3cc(OCc4c(Cl)cccc4Cl)ccc3C2=O)c2ccccc21` [Aurone 4g, (2Z)-6-[(2,6-Dichlorobenzyl)oxy]-2-[(1-methyl-1H-indol-3-yl)methylene]-1-benzofuran-3(2H)-one], the melting point was in the range of 247 to 249 °C.

With `COc1ccc2c(c1)c(/C=C1\Oc3cc(OCc4c(Cl)cccc4Cl)ccc3C1=O)cn2C` [Aurone 4l, (2Z)-6-[(2,6-Dichlorobenzyl)oxy]-2-[(5-methoxy-1-methyl-1H-indol-3-yl)methylene]-1-benzofuran-3(2H)-one], the melting point was 233 to 235 °C.

Consider `COc1ccc2nc(/C=C3\Oc4cc(O)ccc4C3=O)ccc2c1` [Aurone 3f, (2Z)-6-Hydroxy-2-[(6-methoxyquinolin-2-yl)methylene]-1-benzofuran-3(2H)-one], for which the melting point was 269 to 271 °C.

As for `O=C1/C(=C/c2nccc3ccccc23)Oc2cc(O)ccc21` [Aurone 3d, (2Z)-6-Hydroxy-2-(isoquinolin-1-ylmethylene)-1-benzofuran-3(2H)-one], the melting point is above 220 °C.

Consider `Cc1c(OCc2c(Cl)cccc2Cl)ccc2c1O/C(=C\c1cn(C)c3ccccc13)C2=O` [Aurone 4i, (2Z)-6-[(2,6-Dichlorobenzyl)oxy]-7-methyl-2-[(1-methyl-1H-indol-3-yl)methylene]-1-benzofuran-3(2H)-one], for which the melting point was 232 to 234 °C.

`CN1CCN(c2ccc(/C=C3\Oc4cc(O)ccc4C3=O)cc2)CC1` (as salt: hydrochloride): the melting point is above 220 °C.

The molecule `CCn1cc(/C=C2\Oc3cc(O)ccc3C2=O)c2ccccc21` [Aurone 3m, (2Z)-2-[(1-Ethyl-1H-indol-3-yl)methylene]-6-hydroxy-1-benzofuran-3(2H)-one] gave a melting point of 278 to 280 °C.
